This note sets out measurements from patent publication US8563714B2, “Bridged spiro [2.4] heptane derivatives as ALX receptor and/or FPRL2 agonists” (Actelion Pharmaceuticals Ltd., priority 2009, dated 2013).

Where only a bound is given, the exact number is not on record here.

One assay concerns the target T1, human ALX receptor (Homo sapiens, UniProt P25090).
T1 construct: expressed in transfected cells; host or cells: HEK293 (HEK293-hALXR-Gα16)
T1 sequence (P25090 1-351): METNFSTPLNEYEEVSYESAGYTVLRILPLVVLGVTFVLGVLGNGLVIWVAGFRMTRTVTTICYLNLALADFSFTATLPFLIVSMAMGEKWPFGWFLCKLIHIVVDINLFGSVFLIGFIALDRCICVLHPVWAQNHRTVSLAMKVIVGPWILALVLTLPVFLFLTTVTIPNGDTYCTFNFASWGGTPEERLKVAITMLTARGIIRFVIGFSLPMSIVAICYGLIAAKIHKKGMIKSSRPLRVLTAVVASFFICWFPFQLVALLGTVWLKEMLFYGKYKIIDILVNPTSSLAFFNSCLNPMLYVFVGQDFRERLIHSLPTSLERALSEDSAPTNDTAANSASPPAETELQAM
Kind of assay: Intracellular calcium measurements (FLIPR), agonistic activity in HEK293-hALXR-Gα16 cells. The assay is classed as cell-based. The following applies: Fluo-4 calcium FLIPR, normalized to WKYMVm 10 nM. In a few lines: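 HEK293 cells expressing hALXR and Gα16 were loaded with 1 μM Fluo-4 AM and 20 mM HEPES for 60 min at 37°C, then exposed to serially diluted compound. FLIPR fluorescence was read at ex 488/em 540 nm. Baseline-subtracted peak responses were normalized to 10 nM WKYMVm.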
On the technique in general: Calcium flux is commonly read through the fluorescence of an indicator in the cells.

For the next assay, the target named is T2, human FPRL2 (Homo sapiens, UniProt P25089).
T2 construct: expressed in transfected cells; host or cells: HEK293 (HEK293-hFPRL2-Gα16)
T2 sequence (P25089 1-353): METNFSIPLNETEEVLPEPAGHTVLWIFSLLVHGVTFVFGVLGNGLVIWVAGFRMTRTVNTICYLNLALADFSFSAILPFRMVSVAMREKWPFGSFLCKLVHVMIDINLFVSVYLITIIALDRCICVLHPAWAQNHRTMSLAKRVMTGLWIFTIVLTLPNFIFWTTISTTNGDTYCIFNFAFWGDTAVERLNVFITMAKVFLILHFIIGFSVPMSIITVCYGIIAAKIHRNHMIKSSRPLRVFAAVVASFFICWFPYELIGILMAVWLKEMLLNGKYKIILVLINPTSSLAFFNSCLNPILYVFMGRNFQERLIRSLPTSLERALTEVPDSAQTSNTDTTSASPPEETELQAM
Kind of assay: Intracellular calcium measurements (FLIPR), agonistic activity in HEK293-hFPRL2-Gα16 cells. The assay is classed as cell-based. The following applies: Fluo-4 calcium FLIPR, normalized to GLY14-Humanin 100 nM. In a few lines:
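Peak values after baseline subtraction are expressed relative to 100 nM Gly14-Humanin; compounds diluted in assay buffer from 10 mM DMSO stocks.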

By EC50 is commonly meant the concentration at which the effect is half-maximal. `CN(C)CCNC(=O)[C@H]1[C@H](C(=O)NCCc2ccc(Cl)cc2)[C@@H]2C=C[C@H]1C21CC1` [Example 388, (5R)—N^5-(2-(4-Chlorophenyl)ethyl)-(6R)—N^6-(2-dimethylamino-ethyl)-(4S,7R)-[4,7-ethenylene-spiro[2.4]heptane]-5,6-dicarboxamide]: the results for the 50% effective concentration (EC50) at human ALX receptor and on human FPRL2 were above 25000 nM and 623 nM, respectively.
The corresponding values for `O=C(NCCc1ccccn1)[C@H]1[C@H](C(=O)NCCc2ccc(Cl)cc2)[C@@H]2C=C[C@H]1C21CC1` [Example 389, (5R)—N^5-(2-(4-Chlorophenyl)ethyl)-(6R)—N^6-(2-(pyridin-2-yl)ethyl)-(4S,7R)-[4,7-ethenylene-spiro[2.4]heptane]-5,6-dicarboxamide] are above 25000 nM and 554 nM.
In the same order, the values of `NS(=O)(=O)c1ccc(CCNC(=O)[C@H]2[C@H](C(=O)NCCc3ccc(Cl)cc3)[C@@H]3C=C[C@H]2C32CC2)cc1` [Example 390, (5R)—N^5-(2-(4-Chlorophenyl)ethyl)-(6R)—N^6-(2-(4-aminosulfonyl-phenyl)-ethyl)-(4S,7R)-[4,7-ethenylene-spiro[2.4]heptane]-5,6-dicarboxamide] are above 25000 nM and 576 nM.
For `O=C(NCCCCN1CCCC1)[C@H]1[C@H](C(=O)NCCc2ccc(Cl)cc2Cl)[C@@H]2C=C[C@H]1C21CC1` [Example 391, (5R)—N^5-(2-(2,4-Dichlorophenyl)ethyl)-(6R)—N^6-(4-pyrrolidino-butyl)-(4S,7R)-[4,7-ethenylene-spiro[2.4]heptane]-5,6-dicarboxamide], the values for the EC50 on human ALX receptor and on human FPRL2 were 9710 nM and 3.8 nM, respectively.
In the same order, the values of `CC(C)CCN1CCC(NC(=O)[C@H]2[C@H](C(=O)NCCc3ccc(Cl)cc3)[C@@H]3C=C[C@H]2C32CC2)CC1` [Example 392, (5R)—N^5-(2-(4-Chlorophenyl)ethyl)-(6R)—N^6—(N-isopentyl-piperidin-4-yl)-(4S,7R)-[4,7-ethenylene-spiro[2.4]heptane]-5,6-dicarboxamide] are 10400 nM and 20 nM.
In the same order, the values of `O=C(NCCCCN1CCCC1)[C@H]1[C@H](C(=O)Nc2cc(F)c(Br)c(F)c2)[C@@H]2C=C[C@H]1C21CC1` [Example 393, (5R)—N^5-(4-Bromo-3,5-difluorophenyl)-(6R)—N^6-(4-pyrrolidino-butyl)-(4S,7R)-[4,7-ethenylene-spiro[2.4]heptane]-5,6-dicarboxamide] are 1190 nM and 16 nM.
Regarding `O=C(NCCCCN1CCCC1)[C@H]1[C@H](C(=O)Nc2nc(Br)cs2)[C@@H]2C=C[C@H]1C21CC1` [Example 394, (5R)—N^5-(4-Bromo-thiazol-2-yl)-(6R)—N^6-(4-pyrrolidino-butyl)-(4S,7R)-[4,7-ethenylene-spiro[2.4]heptane]-5,6-dicarboxamide], the half-maximal effective concentration (EC50) on human ALX receptor was 1550 nM; on human FPRL2 it was 166 nM.
On to `O=C(NCCCCN1CCCC1)[C@H]1[C@H](C(=O)Nc2ccc(Br)c(C(F)(F)F)c2)[C@@H]2C=C[C@H]1C21CC1` [Example 395, (5R)—N^5-(4-Bromo-3-trifluoromethylphenyl)-(6R)—N^6-(4-pyrrolidino-butyl)-(4S,7R)-[4,7-ethenylene-spiro[2.4]heptane]-5,6-dicarboxamide], for which the EC50 worked out at 3800 nM on human ALX receptor and 13 nM at human FPRL2.
The corresponding values for `CC1CCC(C)N1CCCCNC(=O)[C@H]1[C@H](C(=O)Nc2ccc(Br)cc2)[C@@H]2C=C[C@H]1C21CC1` (stereo partly drawn) [Example 397, (5R)—N^5-(4-Bromophenyl)-(6R)—N^6-(4-(2,5-dimethylpyrrolidin-1-yl)butyl)-(4S,7R)-[4,7-ethenylene-spiro[2.4]heptane]-5,6-dicarboxamide] are 2.1 nM and 149 nM.
The corresponding values for `CC(CCCNC(=O)[C@H]1[C@H](C(=O)Nc2ccc(Br)cc2)[C@@H]2C=C[C@H]1C21CC1)N1CCCC1` (stereo partly drawn) [Example 398, (5R)—N^5-(4-Bromophenyl)-(6R)—N^6-(4-(pyrrolidin-1-yl)pentyl)-(4S,7R)-[4,7-ethenylene-spiro[2.4]heptane]-5,6-dicarboxamide] are 1.8 nM and 7510 nM.
In the same order, the values of `O=C(NCCC(F)CN1CCCC1)[C@H]1[C@H](C(=O)Nc2ccc(Br)cc2)[C@@H]2C=C[C@H]1C21CC1` (stereo partly drawn) [Example 399, (5R)—N^5-(4-Bromophenyl)-(6R)—N^6-(3-fluoro-4-(pyrrolidin-1-yl)butyl)-(4S,7R)-[4,7-ethenylene-spiro[2.4]heptane]-5,6-dicarboxamide] are 5 nM and 4770 nM.
For the molecule `COCC1CCCN1CCCCNC(=O)[C@H]1[C@H](C(=O)Nc2ccc(Br)cc2)[C@@H]2C=C[C@H]1C21CC1` (stereo partly drawn) [Example 400, (5R)—N^5-(4-Bromophenyl)-(6R)—N^6-(4-(2-(methoxymethyl)pyrrolidin-1-yl)butyl)-(4S,7R)-[4,7-ethenylene-spiro[2.4]heptane]-5,6-dicarboxamide], the concentration for a half-maximal effect (EC50) at human ALX receptor is 1.4 nM; on human FPRL2, 7650 nM.
For `O=C(NCCCCN1CCC(F)(F)C1)[C@H]1[C@H](C(=O)Nc2ccc(Br)cc2)[C@@H]2C=C[C@H]1C21CC1` [Example 401, (5R)—N^5-(4-Bromophenyl)-(6R)—N^6-(4-(3,3-difluoropyrrolidin-1-yl)butyl)-(4S,7R)-[4,7-ethenylene-spiro[2.4]heptane]-5,6-dicarboxamide], the EC50 turned out to be 4.4 nM at human ALX receptor and 516 nM on human FPRL2.
The corresponding values for `O=C(NCCCCN1CCCC1)[C@H]1[C@H](C(=O)Nc2cnc(Br)c(F)c2)[C@@H]2CC[C@H]1C21CC1` [Example 402, (5R)—N^5-(2-Bromo-3-fluoro-pyridin-5-yl)-(6R)—N^6-(4-pyrrolidino-butyl)-(4S,7R)-[4,7-ethylene-spiro[2.4]heptane]-5,6-dicarboxamide] are 349 nM and 66 nM.
In the same order, the values of `O=C(NCCO)[C@H]1[C@H](C(=O)Nc2ncc(Br)s2)[C@@H]2CC[C@H]1C21CC1` [Example 403, (5R)—N^5-(5-Bromothiazol-2-yl)-(6R)—N^6-(2-hydroxyethyl)-(4S,7R)-[4,7-ethylene-spiro[2.4]heptane]-5,6-dicarboxamide] are 158 nM and 21400 nM.
For `O=C(NCCCO)[C@H]1[C@H](C(=O)Nc2ncc(Br)s2)[C@@H]2CC[C@H]1C21CC1` [Example 404, (5R)—N^5-(5-Bromothiazol-2-yl)-(6R)—N^6-(3-hydroxypropyl)-(4S,7R)-[4,7-ethylene-spiro[2.4]heptane]-5,6-dicarboxamide], the EC50 is 96 nM on human ALX receptor and 10000 nM at human FPRL2.
Take `O=C(NCCCCO)[C@H]1[C@H](C(=O)Nc2ncc(Br)s2)[C@@H]2CC[C@H]1C21CC1` [Example 405, (5R)—N^5-(5-Bromothiazol-2-yl)-(6R)—N^6-(4-hydroxybutyl)-(4S,7R)-[4,7-ethylene-spiro[2.4]heptane]-5,6-dicarboxamide]: the EC50 amounted to 80 nM at human ALX receptor and 7840 nM at human FPRL2.
The corresponding values for `CC(C)(CO)NC(=O)[C@H]1[C@H](C(=O)Nc2ncc(Br)s2)[C@@H]2CC[C@H]1C21CC1` [Example 406, (5R)—N^5-(5-Bromothiazol-2-yl)-(6R)—N^6-(2-methyl-3-hydroxyprop-2-yl)-(4S,7R)-[4,7-ethylene-spiro[2.4]heptane]-5,6-dicarboxamide] are 333 nM and 15200 nM.
In the same order, the values of `O=C(NCCOCCO)[C@H]1[C@H](C(=O)Nc2ncc(Br)s2)[C@@H]2CC[C@H]1C21CC1` [Example 407, (5R)—N^5-(5-Bromothiazol-2-yl)-(6R)—N^6-(2-(2-hydroxyethoxy)ethyl)-(4S,7R)-[4,7-ethylene-spiro[2.4]heptane]-5,6-dicarboxamide] are 11 nM and 9230 nM.
The corresponding values for `O=C(N[C@H]1CC[C@H](O)CC1)[C@H]1[C@H](C(=O)Nc2ncc(Br)s2)[C@@H]2CC[C@H]1C21CC1` [Example 408, (5R)—N^5-(5-Bromothiazol-2-yl)-(6R)—N^6-(4-hydroxy-cyclohexyl)-(4S,7R)-[4,7-ethylene-spiro[2.4]heptane]-5,6-dicarboxamide] are 69 nM and 16300 nM.
Consider `O=C(NCC1(O)CCCCC1)[C@H]1[C@H](C(=O)Nc2ncc(Br)s2)[C@@H]2CC[C@H]1C21CC1` [Example 409, (5R)—N^5-(5-Bromothiazol-2-yl)-(6R)—N^6-[(1-hydroxy-cyclohexyl)methyl]-(4S,7R)-[4,7-ethylene-spiro[2.4]heptane]-5,6-dicarboxamide], for which the concentration for a half-maximal effect (EC50) at human ALX receptor came to 129 nM; at human FPRL2, 9190 nM.
